Test results taken from patent US20090082395A1, “SOLUBLE EPOXIDE HYDROLASE INHIBITORS” (Arete Therapeutics, Inc., priority 2007, published 2009).

Tests used:
[1] = test system: soluble epoxide hydrolase (sEH); assay: Fluorescent assay for mouse and human soluble epoxide hydrolase (CMNPC substrate); type: biochemical; settings: recombinant sEH, species (mouse or human) not given
Source text: Fluorescent Assay for Mouse and Human Soluble Epoxide Hydrolase
Recombinant mouse sEH (MsEH) and human sEH (HsEH) were produced in a baculovirus expression system as previously reported. Grant et al., J. Biol. Chem., 268:17628-17633 (1993); Beetham et al., Arch. Biochem. Biophys., 305:197-201 (1993). The expressed proteins were purified from cell lysate by affinity chromatography. Wixtrom et al., Anal. Biochem., 169:71-80 (1988). Protein concentration was quantified using the Pierce BCA assay using bovine serum albumin as the calibrating standard. The preparations were at least 97% pure as judged by SDS-PAGE and scanning densitometry. They contained no detectable esterase or glutathione transferase activity which can interfere with the assay. The assay was also evaluated with similar results in crude cell lysates or homogenate of tissues.
The IC50s for each inhibitor were according to the following procedure:
Cyano(2-methoxynaphthalen-6-yl)methyl (3-phenyloxiran-2-yl)methyl carbonate (CMNPC; Jones P. D. et. al.; Analytical Biochemistry 2005; 343: pp. 66-75)
Bis/Tris HCl 25 mM pH 7.0 containing 0.1 mg/mL of BSA (buffer A)
CMNPC at 0.25 mM in DMSO.
Mother solution of enzyme in buffer A (Mouse sEH at 6 μg/mL and Human sEH at 5 μg/mL). Inhibitor dissolved in DMSO at the appropriate concentration.
In a black 96 well plate, fill all the wells with 150 μL of buffer A. Add 2 μL of DMSO in well A2 and A3, and then add 2 μL of inhibitor solution in A1 and A4 through A12. Add 150 μL of buffer A in row A, then mix several time and transfer 150 μL to row B. Repeat this operation up to row H. The 150 μL removed from row H go to the trash. Add 20 μL of buffer A in column 1 and 2, then add 20 μL of enzyme solution to column 3 to 12. Incubate the plate for 5 minutes in the plate reader at 30° C. During incubation prepare the working solution of substrate by mixing 3.68 mL of buffer A (4×0.920 mL) with 266 μL (2×133 μL) of substrate solution). At t=0, add 30 μL of working substrate solution with multi-channel pipette labeled “Briggs 303” and start the reading ([S]final: 5 μM). Read with ex: 330 nm (20 nm) and em: 465 nm (20 nm) every 30 second for 10 minutes. The velocities are used to analyze and calculate the IC50s.

Compound | % Inh ([1]; compound concentration 2000 nM) | melting point | % Inh ([1]; compound concentration 50 nM) | % Inh ([1]; compound concentration 500 nM)
O=C(Nc1ccc(C(F)(F)F)cc1)Nc1ccc2ncccc2c1 [Compound 1, 1-(quinolin-6-yl)-3-(4-(trifluoromethyl)phenyl)urea] | 98% | 259 to 263 °C | – | –
O=C(Nc1ccc(C(F)(F)F)cc1)Nc1ccc2c(c1)OC(F)(F)O2 [Compound 3, 1-(2,2-difluorobenzol[d][1,3]dioxol-5-yl)-3-(4-(trifluoromethyl)phenyl)urea] | – | 195 to 200 °C | 91% | –
O=C(Nc1cccc(C(F)(F)F)c1)Nc1ccc2c(c1)OC(F)(F)O2 [Compound 5, 1-(2,2-difluorobenzo[d][1,3]dioxol-5-yl)-3-(3-(trifluoromethyl)phenyl)urea] | – | – | – | 89%
O=C(Nc1ccc(Cl)cc1)Nc1ccc2c(c1)OC(F)(F)O2 [Compound 7, 1-(4-chlorophenyl)-3-(2,2-difluorobenzo[d][1,3]dioxol-5-yl)urea] | – | 231 to 233 °C | 95% | –
O=C(Nc1ccc(C(F)(F)F)cc1)Nc1ccc2[nH]c(C(F)(F)F)nc2c1 [Compound 14, 1-(2-(trifluoromethyl)-1H-benzo[d]imidazol-5-yl)-3-(4-(trifluoromethyl)phenyl)urea] | – | 223 to 228 °C | 80% | –
O=C(Nc1cccc(C(F)(F)F)c1)Nc1ccc2nc(C(F)(F)F)[nH]c2c1 [Compound 16, 1-(2-(trifluoromethyl)-1H-benzo[d]imidazol-5-yl)-3-(3-(trifluoromethyl)phenyl)urea] | – | 213 to 215 °C | – | 85%
O=C(Nc1cccc(C(F)(F)F)c1)Nc1ccc2c(c1)COC2=O [Compound 17, 1-(1-oxo-1,3-dihydroisobenzofuran-5-yl)-3-(3-(trifluoromethyl)phenyl)urea] | – | 279 to 282 °C | 86% | –
O=C(Nc1ccc(C(F)(F)F)cc1)Nc1ccc2c(c1)COC2=O [Compound 18, 1-(1-oxo-1,3-dihydroisobenzofuran-5-yl)-3-(4-(trifluoromethyl)phenyl)urea] | – | – | 87% | –

Second part, the molecule after the results:

% Inh ([1]; compound concentration 2000 nM) | melting point | % Inh ([1]; compound concentration 50 nM) | % Inh ([1]; compound concentration 500 nM) | Compound
98% | – | – | – | O=C(Nc1ccc2c(c1)OCCO2)NC12CC3CC(CC(C3)C1)C2 [Compound 2, 1-adamantan-1-yl-3-(2,3-dihydrobenzo[b][1,4]dioxin-6-yl)urea]
– | 264 to 268 °C | – | 91% | O=C(Nc1ccc(Cl)cc1)Nc1ccc2[nH]c(C(F)(F)F)nc2c1 [Compound 4, 1-(4-chlorophenyl)-3-(2-(trifluoromethyl)-1H-benzo[d]imidazol-5-yl)urea]
– | 257 to 260 °C | 89% | – | Cc1cc2cc(NC(=O)Nc3ccc(Cl)cc3)ccc2[nH]1 [Compound 6, 1-(4-chlorophenyl)-3-(2-methyl-1H-indol-5-yl)urea]
– | 252 to 254 °C | 92% | – | Cn1ncc2cc(NC(=O)Nc3ccc(C(F)(F)F)cc3)ccc21 [Compound 8, 1-(1-methyl-1H-indazol-5-yl)-3-(4-(trifluoromethyl)phenyl)urea]
– | 146 to 152 °C | 85% | – | Cc1cc2cc(NC(=O)NC34CC5CC(CC(C5)C3)C4)ccc2[nH]1 [Compound 9, 1-adamantan-1-yl-3-(2-methyl-1H-indol-5-yl)urea]
– | 213 to 215 °C | 99% | – | O=C(Nc1ccc2c(c1)OC(F)(F)O2)NC12CC3CC(CC(C3)C1)C2 [Compound 10, 1-adamantan-1-yl-3-(2,2-difluorobenzo[d][1,3]dioxol-5-yl)urea]
– | 240 to 243 °C | 98% | – | Cc1nc2cc(NC(=O)Nc3ccc(C(F)(F)F)cc3)ccc2o1 [Compound 11, 1-(2-methylbenzo[d]oxazol-5-yl)-3-(4-(trifluoromethyl)phenyl)urea]
– | 184 to 186 °C | – | 93% | Cc1nc2cc(NC(=O)Nc3cccc(C(F)(F)F)c3)ccc2o1 [Compound 12, 1-(2-methylbenzo[d]oxazol-5-yl)-3-(3-(trifluoromethyl)phenyl)urea]
– | 209 to 214 °C | 92% | – | Cc1nc2cc(NC(=O)NC34CC5CC(CC(C5)C3)C4)ccc2s1 [Compound 13, 1-adamantan-1-yl-3-(2-methylbenzo[d]thiazol-5-yl)urea]
– | 189 to 192 °C | – | 93% | O=C(Nc1ccc2[nH]c(C(F)(F)F)nc2c1)NC12CC3CC(CC(C3)C1)C2 [Compound 15, 1-adamantan-1-yl-3-(2-(trifluoromethyl)-1H-benzo[d]imidazol-5-yl)urea]
